The numbers were not newly measured in patent US20030133903A1, “Compositions for treatment of prostate cancers and methods of making and using the same” (priority 2001, published 2003), which cites them from elsewhere.

This series deals with LNCaP cell line. To be noted: already published reports.

Regarding `CC(=O)O[C@H]1C(=O)[C@@]2(C)[C@H]([C@H](OC(=O)c3ccccc3)[C@]3(O)C[C@H](OC(=O)[C@H](O)[C@@H](NC(=O)c4ccccc4)c4ccccc4)C(C)=C1C3(C)C)[C@]1(OC(C)=O)CO[C@@H]1C[C@@H]2O` [paclitaxel], the IC50 entry is on record as “low nM or sub nM”.
